# Activity calls are given as the source filed them. No cut-off for these calls is given here.
# Experiments:
# RAW264.7 [1] = test: Antiinflammatory activity against LPS-stimulated mouse RAW264.7 cells assessed as downregulation of LPS-induced iNOS expression preincubated with compound for 2 hrs followed by LPS stimulation and measured after 24 hrs by Western blot analysis; type: functional, cell-based; conditions: dose 10-40 µM, time 26.0 hrs
# RAW264.7 [2] = test: Cytotoxicity against mouse RAW264.7 cells assessed as cell viability by MTT assay; type: functional, cell-based
# RAW264.7 [3] = test: Antiinflammatory activity against LPS-stimulated mouse RAW264.7 cells assessed as suppression of NO secretion at 20 uM preincubated with compound for 2 hrs followed by LPS stimulation and measured after 24 hrs by Griess reagent based assay relative to control; type: functional; conditions: time 26 hrs
# RAW264.7 [4] = test: Antiinflammatory activity against LPS-stimulated mouse RAW264.7 cells assessed as inhibition of NO production preincubated with compound for 2 hrs followed by LPS stimulation and measured after 24 hrs by Griess reagent based analysis; type: functional, cell-based; conditions: dose 10-40 µM, time 26.0 hrs
# MDA-MB-231 = test: Anticancer activity against human MDA-MB-231 cells assessed as inhibition of cell growth incubated for 48 hrs by MTT assay; type: functional, cell-based; conditions: MDA-MB-231, 48 h
# MCF7 = test: Anticancer activity against human MCF7 cells assessed as inhibition of cell growth incubated for 48 hrs by MTT assay; type: functional, cell-based; conditions: MCF7, 48 h
# NCI-H1975 = test: Anticancer activity against human NCI-H1975 cells assessed as inhibition of cell growth incubated for 48 hrs by MTT assay; type: functional, cell-based; conditions: NCI-H1975, 48 h
# A549 = test: Anticancer activity against human A549 cells assessed as inhibition of cell growth incubated for 48 hrs by MTT assay; type: functional, cell-based; conditions: A549, 48 h
smiles,measurement,setting,value
CC(C)c1ccc2c(c1O)CC[C@@H]1[C@@](C)(CO)CCC[C@@]21C,Activity,RAW264.7 [1],Dose-Dependent Effect
same,Activity,RAW264.7 [2],inactive
same,Activity,RAW264.7 [3],94%
same,inhibition,RAW264.7 [4],Dose-Dependent Effect
CC(=O)[C@@H](C)CC[C@@]1(C(=O)O)C=C2C=CC3[C@@]4(C)C(C(=O)O)=CC(C)(C)[C@@H]4CC[C@@]3(C)[C@]2(C)CC1 (stereo partly specified),Activity,RAW264.7 [2],inactive
C=C1CC[C@@H]2[C@](C)(CO)CCC[C@@]2(C)C1CCC1=CCOC1=O (stereo partly specified),Activity,RAW264.7 [2],inactive
CC(C)c1cc2c(cc1O)[C@@]1(C)CCC[C@](C)(CO)[C@@H]1CC2,inhibition,RAW264.7 [4],Dose-Dependent Effect
C=C1C(=O)[C@]23C[C@H]1CC[C@H]2[C@]1(C)CC[C@@H](O)C(C)(C)[C@H]1C[C@@H]3OC(C)=O,IC50,MDA-MB-231,6.6 µM
same,Activity,RAW264.7 [2],inactive
same,IC50,MCF7,7.4 µM
same,IC50,NCI-H1975,6.3 µM
same,IC50,A549,4.7 µM
CC(C)c1cc2c(cc1O)[C@@]1(C)CC[C@H](O)C(C)(C)[C@@H]1CC2,Activity,RAW264.7 [2],inactive
CC(C)c1cc2c(cc1O)[C@@]1(C)CC[C@H](O)[C@](C)(C=O)[C@@H]1CC2,Activity,RAW264.7 [2],inactive
same,Activity,RAW264.7 [3],95%
CC(C)c1c(O)ccc2c1CC[C@H]1C(C)(C)C(=O)CC[C@]21C,Activity,RAW264.7 [2],inactive
same,inhibition,RAW264.7 [4],Dose-Dependent Effect
CC(C)c1cc2c(cc1O)[C@@]1(C)CCCC(C)(C)[C@@H]1CC2=O,Activity,RAW264.7 [2],inactive
C=C1CC[C@@H]2C(C)(C)[C@H](O)CC[C@@]2(C)C1CCC1=CCOC1=O (stereo partly specified),Activity,RAW264.7 [2],inactive
COc1cc(/C=C/C(=O)O[C@H]2[C@H](O)C[C@]3(C)C4CC=C5C6CC(C)(C)CC[C@]6(C(=O)O)CC[C@@]5(C)[C@]4(C)CC[C@H]3C2(C)C)ccc1O (stereo partly specified),Activity,RAW264.7 [2],inactive
C=C1[C@@H]2CC[C@H]3[C@]4(C)CC[C@@H](O)C(C)(C)[C@H]4C[C@@H](O)[C@]3(C2)[C@@H]1O,Activity,RAW264.7 [2],inactive
CC(C)[C@@]1(O)CCC2=C(C1)C(=O)C[C@H]1C(C)(C)CC[C@H](O)[C@]21C,Activity,RAW264.7 [2],inactive
same,inhibition,RAW264.7 [4],Dose-Dependent Effect
CC(C)c1cc2c(cc1O)C(=O)C[C@H]1[C@@](C)(CO)CCC[C@]21C,Activity,RAW264.7 [2],inactive
same,inhibition,RAW264.7 [4],Dose-Dependent Effect
CC1(C)CC[C@]2(C(=O)O)CC[C@]3(C)C(=CC[C@@H]4[C@@]5(C)C[C@@H](O)[C@H](O)C(C)(C)[C@@H]5CC[C@]43C)[C@@H]2C1,Activity,RAW264.7 [2],inactive
C=C1C(=O)[C@@]23CC[C@@H]4C(C)(C)C(=O)CC[C@@]4(C)[C@@H]2CC[C@@H]1C3,IC50,MDA-MB-231,8.4 µM
same,Activity,RAW264.7 [2],inactive
same,IC50,MCF7,> 10 µM
same,IC50,NCI-H1975,> 10 µM
same,IC50,A549,> 10 µM
CC(C)C(=O)OC1=C[C@@]2(CO)C(CC[C@]3(C)C2CC=C2C4[C@](C(=O)O)(CC[C@@H](C)[C@@]4(C)O)CC[C@]23C)C(C)(C)C1 (stereo partly specified),Activity,RAW264.7 [2],inactive
CC(C)[C@H]1CC[C@H]2[C@@H](CC[C@H]3C(C)(C)CCC[C@]23C)C1,inhibition,RAW264.7 [4],Active
C[C@@H]1CC[C@]2(C(=O)O)CC[C@]3(C)C(=CC[C@@H]4[C@@]5(C)C(CO)=CC(C)(C)[C@@H]5CC[C@]43C)[C@@H]2[C@]1(C)O [HYPTASIENIC ACID],IC50,MDA-MB-231,> 10 µM
same,Activity,RAW264.7 [2],inactive
same,IC50,MCF7,> 10 µM
same,IC50,NCI-H1975,> 10 µM
same,IC50,A549,7.4 µM
CC1(C)CC[C@]2(C(=O)O)CC[C@]3(C)C(=CCC4[C@@]5(C)C[C@@H](O)[C@H](OC(=O)/C=C/c6ccc(O)cc6)C(C)(C)[C@@H]5CC[C@]43C)C2C1 (stereo partly specified),Activity,RAW264.7 [2],inactive
CC(=O)O[C@H]1C(=O)[C@@]2(C)[C@H]([C@H](OC(=O)c3ccccc3)[C@]3(O)C[C@H](OC(=O)[C@H](O)[C@@H](NC(=O)c4ccccc4)c4ccccc4)C(C)=C1C3(C)C)[C@]1(OC(C)=O)CO[C@@H]1C[C@@H]2O [PACLITAXEL],IC50,MDA-MB-231,0.03 µM
same,IC50,NCI-H1975,0.028 µM
same,IC50,A549,0.018 µM
CC1(C)CC[C@]2(C(=O)O)CC[C@]3(C)C(=C2C1)C=CC1[C@@]2(C)C[C@@H](O)[C@H](O)C(C)(C)[C@@H]2CC[C@]13C (stereo partly specified),Activity,RAW264.7 [2],inactive
CC1(C)CC[C@]2(C(=O)O)CC[C@]3(C)C(=C2C1)CCC1[C@@]2(C)C[C@@H](O)[C@H](O)C(C)(C)[C@@H]2CC[C@]13C (stereo partly specified),Activity,RAW264.7 [2],inactive
CC(C)c1cc2c(cc1O)[C@@]1(C)CCC[C@](C)(CO)[C@@H]1C=C2,Activity,RAW264.7 [2],inactive
CC(C)c1cc2c(cc1O)CC[C@H]1[C@](C)(CO)CCC[C@]21C,Activity,RAW264.7 [1],Dose-Dependent Effect
same,Activity,RAW264.7 [2],inactive
same,inhibition,RAW264.7 [4],Dose-Dependent Effect
CC(C)c1cc2c(cc1O)CC[C@H]1C(C)(C)[C@@H](O)CC[C@]21C,Activity,RAW264.7 [1],Dose-Dependent Effect
same,Activity,RAW264.7 [2],inactive
same,Activity,RAW264.7 [3],91%
same,inhibition,RAW264.7 [4],Dose-Dependent Effect
COc1cc2c(cc1C(C)C)CC[C@H]1[C@@](C)(C(=O)O)CCC[C@]21C,Activity,RAW264.7 [2],inactive
CC(C)c1c(O)ccc2c1CC[C@H]1[C@@](C)(C(=O)O)CCC[C@]21C,Activity,RAW264.7 [2],inactive
same,inhibition,RAW264.7 [4],Dose-Dependent Effect
C=C1[C@@H]2CC[C@H]3[C@]4(C)CC[C@@H](O)C(C)(C)[C@H]4C[C@H](OC(C)=O)[C@]3(C2)[C@@H]1O,Activity,RAW264.7 [2],inactive
C=C1C(=O)O[C@H]2C3=CC[C@@H]4C(C)(C)C(=O)CC[C@@]4(C)[C@@H]3CC[C@@H]12,IC50,MDA-MB-231,7.3 µM
same,Activity,RAW264.7 [2],inactive
same,IC50,MCF7,> 10 µM
same,IC50,NCI-H1975,> 10 µM
same,IC50,A549,> 10 µM
CC(C)c1cc2c(cc1O)C(=O)C[C@H]1C(C)(C)CCC[C@]21C,Activity,RAW264.7 [1],Dose-Dependent Effect
same,Activity,RAW264.7 [2],inactive
same,Activity,RAW264.7 [3],86%
same,inhibition,RAW264.7 [4],Dose-Dependent Effect
C[C@@H]1CC[C@]2(C(=O)O)CC[C@]3(C)C(=CCC4[C@@]5(C)C[C@@H](O)OCC(C)(C)C5CC[C@]43C)C2[C@]1(C)O (stereo partly specified),Activity,RAW264.7 [2],inactive
CC(C)c1c(O)ccc2c1CC[C@H]1C(C)(C)[C@@H](O)CC[C@]21C,Activity,RAW264.7 [2],inactive
C[C@@H]1CC[C@]2(C(=O)O)CC[C@]3(C)C(=CCC4[C@@]5(C)C[C@@H](O)[C@H](OC(=O)/C=C/c6ccc(O)cc6)C(C)(C)[C@@H]5CC[C@]43C)C2[C@H]1C (stereo partly specified),Activity,RAW264.7 [2],inactive
C=C1[C@@H]2CC[C@H]3[C@]4(C)CCC[C@](C)(CO)[C@H]4C[C@H](O)[C@]3(C2)[C@@H]1O,Activity,RAW264.7 [2],inactive
C=C1CC[C@@H]2[C@](C)(C(=O)O)CCC[C@@]2(C)C1CCC1=CCOC1=O (stereo partly specified),Activity,RAW264.7 [2],inactive
CC1(C)CC[C@]2(C(=O)O)CC[C@]3(C)C(=CCC4[C@@]5(C)C[C@@H](O)[C@@H](O)C(C)(C)[C@@H]5CC[C@]43C)C2C1 (stereo partly specified),Activity,RAW264.7 [2],inactive
